In patent publication US7307063B2, “Melanocortin metallopeptides for treatment of sexual dysfunction” (Palatin Technologies, Inc., priority 2001, dated 2007):
Non-standard residues stand in square brackets, D forms with d. Nle = CCCC[C@H](N)C(=O)O

What was measured:
MC1-R [1] = target: T1, MC1-R (Mus musculus, UniProt Q01727); test: Competitive binding assay: inhibition of 125I-NDP-α-MSH binding to membranes from B16-F10 mouse melanoma cells
T1 construct: MC1-R membranes were isolated from B16—F10 mouse melanoma cells; endogenous in cells; host or cells: B16-F10 mouse melanoma cells
T1 sequence (Q01727 whole entry): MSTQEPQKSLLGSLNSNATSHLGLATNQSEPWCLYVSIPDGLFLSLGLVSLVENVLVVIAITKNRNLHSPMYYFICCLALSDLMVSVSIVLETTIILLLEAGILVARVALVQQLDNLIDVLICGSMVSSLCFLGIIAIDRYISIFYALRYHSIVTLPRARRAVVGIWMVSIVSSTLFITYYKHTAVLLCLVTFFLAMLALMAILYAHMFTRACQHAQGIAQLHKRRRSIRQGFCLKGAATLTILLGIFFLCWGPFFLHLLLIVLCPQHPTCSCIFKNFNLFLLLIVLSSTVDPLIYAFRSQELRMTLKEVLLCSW
Method in brief: (§1)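 Percent inhibition of 125I-NDP-α-MSH binding, from cpm normalized to 100% specific binding (total minus binding with 1 μM α-MSH). Test compounds were Re-complexed metallopeptides at a chosen concentration; triplicate means for the added peptides.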

MC4-R [2] = target: T2, MC4-R (Homo sapiens, UniProt P32245); test: Competitive binding assay: inhibition of 125I-NDP-α-MSH binding to HEK-293 membranes with cloned human receptor subtype 4
T2 construct: expressed in transfected cells; host or cells: HEK-293
T2 sequence (P32245 whole entry): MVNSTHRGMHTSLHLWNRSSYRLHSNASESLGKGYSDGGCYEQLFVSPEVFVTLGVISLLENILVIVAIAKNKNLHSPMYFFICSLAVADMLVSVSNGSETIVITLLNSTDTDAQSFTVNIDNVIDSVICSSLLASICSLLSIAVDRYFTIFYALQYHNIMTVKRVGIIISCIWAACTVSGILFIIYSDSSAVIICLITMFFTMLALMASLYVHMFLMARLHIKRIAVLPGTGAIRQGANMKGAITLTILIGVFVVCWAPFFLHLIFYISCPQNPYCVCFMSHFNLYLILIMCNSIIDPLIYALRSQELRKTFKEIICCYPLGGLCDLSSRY
Method in brief: as §1

hMC5-R = target: T3, hMC5-R (Homo sapiens, UniProt P33032); test: Competitive binding assay: inhibition of 125I-NDP-α-MSH binding to HEK-293 membranes with cloned human receptor subtype 5
T3 construct: expressed in transfected cells; host or cells: HEK-293
T3 sequence (P33032 whole entry): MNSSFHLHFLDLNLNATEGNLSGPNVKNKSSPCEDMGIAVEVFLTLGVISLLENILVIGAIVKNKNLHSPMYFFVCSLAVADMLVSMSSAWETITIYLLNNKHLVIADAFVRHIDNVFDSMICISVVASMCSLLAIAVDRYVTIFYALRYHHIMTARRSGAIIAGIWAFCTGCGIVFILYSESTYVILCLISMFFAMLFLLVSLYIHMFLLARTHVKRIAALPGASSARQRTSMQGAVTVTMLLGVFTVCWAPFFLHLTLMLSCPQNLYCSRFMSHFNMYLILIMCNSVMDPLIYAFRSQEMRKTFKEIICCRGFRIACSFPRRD
Method in brief: as §1

hMC2-R = target: T4, hMC2-R (Homo sapiens, UniProt P41968); test: Competitive binding assay of additional compounds, Table 6 hMC2-R; conditions: 1 μM, mean of triplicate
T4 construct: expressed in transfected cells; host or cells: HEK-293
T4 sequence (P41968 whole entry): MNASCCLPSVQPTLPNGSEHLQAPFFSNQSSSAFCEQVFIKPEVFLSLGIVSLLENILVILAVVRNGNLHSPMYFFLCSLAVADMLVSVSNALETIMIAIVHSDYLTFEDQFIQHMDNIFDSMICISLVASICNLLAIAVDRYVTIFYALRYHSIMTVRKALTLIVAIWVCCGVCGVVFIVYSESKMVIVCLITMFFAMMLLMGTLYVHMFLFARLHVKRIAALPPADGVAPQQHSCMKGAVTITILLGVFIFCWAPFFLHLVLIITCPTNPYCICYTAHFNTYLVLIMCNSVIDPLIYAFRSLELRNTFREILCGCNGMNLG

MC4-R [3] = target: T2, MC4-R; test: Functional activity assay: intracellular cAMP in HEK-293 cells expressing MC4-R; format: cell-based; conditions: Re-complexed peptide
Procedure: (§2) Rhenium-complexed metallopeptides were prepared, with functional evaluation of peptides at MC1-R and MC4-R performed by measuring the accumulation of intracellular cAMP in HEK-293 cells expressing MC4-R or B16-F10 mouse melanoma cells expressing MC1-R. Antagonistic activity was determined by measuring the inhibition of α-MSH-induced cAMP levels following exposure to peptide. Cells, suspended in Earle's Balanced Salt Solution containing 10 mM HEPES, pH 7.5, 5 mM MgCl2, 1 mM glutamine, 0.1% albumin and 0.6 mM 3-isobutyl-1-methyl-xanthine, a phosphodiesterase inhibitor, were plated in 96 well plates at a density of 0.5×10^5 cells per well. Cells were incubated with the test peptides in the presence or absence of α-MSH for 1 hour at 37° C. cAMP levels were measured by EIA (Amersham) in the cell lysates. Data analysis and EC50 values were determined using nonlinear regression analysis with Prism Graph-Pad software.

Male Sprague-Dawley rats [4] = test: Penile erection behavior dose response animal studies; format: in vivo, rat; conditions: for Induction of penile erections (PEs) in rat model, in words: rats, IV
Procedure: For behavioral experiments test solutions of rhenium-complexed metallopeptides were freshly prepared in DMSO and diluted in saline. Male Sprague-Dawley rats (Taconic) weighing 200-250 g were kept on a 12 hour on/off light cycle with food and water ad libitum. All behavioral studies were performed between 10 a.m. and 5 p.m. Groups of 3-10 rats were treated with the rhenium-complexed metallopeptides at a variety of doses via intravenous (IV) injection. In a second experimental paradigm, rats were treated a selected compound intranasally (IN) using a micropipet to deliver 25 μl of solution into one nostril. Immediately after treatment, rats were placed into individual Lucite cages (27 cm long, 16 cm wide and 25 cm high) for behavioral observation.

hMC3-R = target: T5, hMC3-R (Homo sapiens, UniProt P41968); test: Competitive binding assay: inhibition of 125I-NDP-α-MSH binding to HEK-293 membranes with cloned human receptor subtype 3; conditions: Table 1
T5 construct: expressed in transfected cells; host or cells: HEK-293
T5 sequence (P41968 whole entry): as above
Procedure: Rhenium-complexed metallopeptides of the formulas given in Table 1 were prepared, with the metallopeptides complexed with rhenium using the rhenium transfer agent ReOCl3(PPh3)2 in the presence of 1,8-Diazabicyclo[5,4,0] undec-7-ene as a base, as disclosed in International Application PCT/US00/16396, filed Jun. 14, 2000, Melanocortin Metallopeptide Constructs, Combinatorial Libraries and Applications, incorporated by reference herein. Affinities of compounds were measured using membranes from HEK-293 cells containing cloned human melanocortin receptor subtypes 3, 4 and 5. MC1-R membranes were isolated from B16—F10 mouse melanoma cells. The assay tube also contained a chosen concentration of the test peptide of this invention, complexed to a rhenium metal ion as indicated, for determining its efficacy in inhibiting the binding of ^125I-NDP-α-MSH to its receptor. Non-specific binding was measured by complete inhibition of binding of ^125I-NDP-α-MSH in the assay with the presence of 1 μM α-MSH. 100% specific binding was defined as the difference in radioactivity (cpm) bound to cell membranes in the absence and presence of 1 μM α-MSH. The cpm obtained in presence of test compounds were normalized with respect to 100% specific binding to determine the percent inhibition of ^125I-NDP-α-MSH binding.

MC1-R [5] = target: T1, MC1-R; test: Functional activity assay: intracellular cAMP in B16-F10 mouse melanoma cells expressing MC1-R; format: cell-based; conditions: Re-complexed peptide
Procedure: as §2

Male Sprague-Dawley rats [6] = test: Combination penile erection behavior studies: antagonist IV before IN agonist; format: in vivo, rat; conditions: effect induced by 50 µg/kg intranasal Ac-Nle-cyclo(-Asp-His-D-Phe-Arg-Trp-Lys)-OH;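 as to Mean Penile Erections/Rat: Erections counted over 30 min observation after IN dosing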;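 as to Percent with Penile Erections: Erections counted over 30 min observation after IN dosing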
Male Sprague-Dawley rats [7] = test: as above; format: in vivo, rat
Procedure: Conditions were as in Example 3 except as noted. Groups of 5-6 rats received an IV dose of either placebo or antagonist 5 minutes prior to an IN dose of either placebo or agonist. Two antagonists were used: ReO[Heptanoyl-Ser(Bzl)-D-Nal 2′-Arg-Trp-Cys-NH2] and SHU9119 (Hruby V J, Lu D, Sharma S D, et al. J Med Chem 38:3454-3461 (1995)), Ac-Nle-cyclo(-Asp-His-D-Nal 2′-Arg-Trp-Lys)-NH2. The agonist used was Ac-Nle-cyclo(-Asp-His-D-Phe-Arg-Trp-Lys)-OH. Immediately after IN treatment, rats were placed into individual Lucite cages for observation. […] In combination studies, the antagonist was dosed IV 5 minutes prior to a 50 μg/kg IN dose of Ac-Nle-cyclo(-Asp-His-D-Phe-Arg-Trp-Lys)-OH.
These studies were conducted as described above in Example 4 with metallopeptide antagonists administered IV five minutes before IN administration of 50 μg/kg Ac-Nle-cyclo(-Asp-His-D-Phe-Arg-Trp-Lys)-OH. […] The potency of these antagonists also correlated with their relative binding affinities in the in vitro binding assays.

[8] = Table 1, 1 μM Re-complexed peptide
[9] = Table 6, 1 μM, mean of triplicate
[10] = IV 50 μg/kg, 30 min observation
[11] = Table 1, 10 μM Re-complexed peptide
[12] = IV 10 μg/kg, 30 min observation
[13] = IV 150 μg/kg, 30 min observation
[14] = combination: antagonist 200 μg/kg IV 5 min prior to 50 μg/kg IN Ac-Nle-cyclo(-Asp-His-D-Phe-Arg-Trp-Lys)-OH

Substance | % Inhibition of Binding MC1-R (MC1-R [1]; [8]) | % Inhibition of Binding hMC4-R (MC4-R [2]; [8]) | Functional activity at MC4-R (cAMP accumulation; inhibition of α-MSH-induced cAMP) (MC4-R [3]) | Mean Penile Erections/Rat (Male Sprague-Dawley rats [4]; [10]) | Induction of penile erections (PEs) in rat model, in words (Male Sprague-Dawley rats [4]) | % Inhibition of Binding hMC3-R (hMC3-R; 1 μM Re-complexed peptide) | % Inhibition of Binding hMC5-R (hMC5-R; [8]) | Mean Penile Erections/Rat (Male Sprague-Dawley rats [4]; [13]) | other results
3′-Br Phenyl acetyl-Arg-Arg-D-Phe(4′-Cl)-Cys-Trp-NH2 | 97% | 100% | MC4-R agonists | 0.5 |  |  |  |  | % Inhibition of Binding MC1-R (MC1-R [1]; [9]): 91%; % Inhibition of Binding hMC4-R (MC4-R [2]; [9]): 92%; % Inhibition of Binding hMC5-R (hMC5-R; [9]): 89%; % Inhibition of Binding hMC2-R (hMC2-R): 48%
Ac-Nle-Ala-His-D-Phe(3′-Cl)-Arg-Trp-Cys-Trp-NH2 | 101% | 100% | MC4-R agonists | 0.5 |  |  |  |  | 
Ac-Nle-Ala-His-D-Phe-Arg-Cys-Trp-NH2 ({Ac-Nle-Ala-H2N}-[dF]RCW-NH2; also: ReO complex) |  |  |  | 0 | inactive in inducing PEs |  |  |  | % Inhibition of Binding MC1-R (MC1-R [1]; [11]): 97%; % Inhibition of Binding hMC3-R (hMC3-R; 10 μM Re-complexed peptide): 14%; % Inhibition of Binding hMC4-R (MC4-R [2]; [11]): 29%; % Inhibition of Binding hMC5-R (hMC5-R; [11]): 22%; Functional activity at MC1-R (cAMP accumulation) (MC1-R [5]): MC1-R specific agonist; Mean Penile Erections/Rat (Male Sprague-Dawley rats [4]; [12]): 0
Ac-Nle-Ala-His-D-Phe-Arg-Trp-Cys-NH2 ({Ac-Nle-Ala-H2N}-[dF]RWC-NH2; also: ReO complex) | 91% | 89% | MC4-R agonists | 1.0 |  | 70% | 93% |  | % with Penile Erections (Male Sprague-Dawley rats [4]; IN 10 μg/kg, 10 rats): 70%; Mean Penile Erections/Rat (Male Sprague-Dawley rats [4]; IN 10 μg/kg, 10 rats): 0.9 ± 0.2; Mean Penile Erections/Rat (Male Sprague-Dawley rats [4]; [12]): 0.25; Mean Penile Erections/Rat (Male Sprague-Dawley rats [4]; IV 30 μg/kg, 30 min observation): 0.75
D-(N-Bzl)Nal 2′-Arg-Trp-Cys-NH2 | 34% | 99% | MC4-R antagonists |  | inactive in inducing PEs | 51% | 95% | 0 | Percent PE Inhibition (Male Sprague-Dawley rats [6]; antagonist 100 μg/kg IV): 14.28%; Percent PE Inhibition (Male Sprague-Dawley rats [6]; antagonist 150 μg/kg IV): 100%
Heptanoyl-Ser(Bzl)-D-Nal 2′-Arg-D-Trp-Cys-NH2 | 1% | 66% | MC4-R antagonists |  | inactive in inducing PEs | 6% | 60% | 0 | Percent PE Inhibition (Male Sprague-Dawley rats [6]; antagonist 200 μg/kg IV): 50%; Percent PE Inhibition (Male Sprague-Dawley rats [6]; antagonist 500 μg/kg IV): 40%
Heptanoyl-Ser(Bzl)-D-Nal 2′-Arg-Trp-Cys-NH2 | 19% | 97% | MC4-R antagonists |  | inactive in inducing PEs | 64% | 98% | 0 | Inhibitory effect on agonist-induced PE response, in words (Male Sprague-Dawley rats [7]; IV 0, 100, 150 and 200 μg/kg, FIG. 8): increased with dose; Mean Penile Erections/Rat (Male Sprague-Dawley rats [7]; antagonist alone, 200 μg/kg IV): 0; Percent with Penile Erections (Male Sprague-Dawley rats [7]; antagonist alone, 200 μg/kg IV): 0%; Mean Penile Erections/Rat (Male Sprague-Dawley rats [7]; [14]): 0; Percent with Penile Erections (Male Sprague-Dawley rats [7]; [14]): 0%; Effect on erectile behavior induced by Ac-Nle-cyclo(-Asp-His-D-Phe-Arg-Trp-Lys)-OH, in words (Male Sprague-Dawley rats [7]; rats, antagonist IV before IN agonist): blocked; Percent PE Inhibition (Male Sprague-Dawley rats [6]; antagonist 100 μg/kg IV): 14.28%; Percent PE Inhibition (Male Sprague-Dawley rats [6]; antagonist 150 μg/kg IV): 50%; Percent PE Inhibition (Male Sprague-Dawley rats [6]; antagonist 200 μg/kg IV): 100%
NH2(CH2)6CO-Ser(Bzl)-D-Nal 2′-Arg-D-Trp-Cys-NH2 |  |  | MC4-R antagonists |  |  |  |  |  | % Inhibition of Binding MC1-R (MC1-R [1]; [9]): 6%; % Inhibition of Binding hMC4-R (MC4-R [2]; [9]): 92%; % Inhibition of Binding hMC5-R (hMC5-R; [9]): 83%; % Inhibition of Binding hMC2-R (hMC2-R): 58%
